Tests used:
[1] = biological target: T1, full-length hepatitis C viral protein NS3•4A (Hepatitis C virus genotype 1a, UniProt P27958); assay: biochemical; design: species or system HCV sub-type strain 1a; settings: Enzyme Assay 2 (HCV NS3 Peptide Cleavage Assay) activity, apparent Ki class
T1 construct: hexa-histidine (N); made in house; host or cells: Sf9 insect cells (baculovirus, pVL1392)

HCV NS3 protease domain = biological target: T2, HCV NS3 protease domain (Hepatitis C virus genotype 1b, UniProt Q9WMX2); assay: biochemical; settings: Enzyme Assay 1 (HCV NS3 Protease Domain Peptide Cleavage Assay) activity, apparent Ki class
T2 construct: The first 181 amino acids of NS3 (residues 1027-1207 of the viral polyprotein); hexa-histidine (C); made in house; host or cells: E. coli BL21/DE3 pLysS

SMILES | Ki [1] | Ki (HCV NS3 protease domain)
CCC[C@H](NC(=O)[C@@H]1C[C@@]2(CC(c3cccc4cccnc34)=NO2)CN1C(=O)[C@@H](NC(=O)CC1CCCCC1)C(C)(C)C)C(=O)C(=O)NC1CC1 [Compound 31] | 100 to 500 nM | 
CCC[C@H](NC(=O)[C@@H]1C[C@]2(CC(c3cc(Cl)cc(OC)c3Cl)=NO2)CN1C(=O)[C@@H](NC(=O)CC1CCCCC1)C(C)(C)C)C(=O)C(=O)NC1CC1 [Compound 38] | 100 to 500 nM | 
CCC[C@H](NC(=O)[C@@H]1C[C@]2(CC(c3cccc(Cl)c3)=NO2)CN1C(=O)[C@@H](NC(=O)CC1CCCCC1)C(C)(C)C)C(=O)C(=O)N1CC(OCC2CCOC2)C1 (some centres unmarked) [Compound 49] | < 100 nM | 
CC(C)(C)[C@H](NC(=O)CC1CCCCC1)C(=O)N1C[C@@]2(CC(c3cccc(Cl)c3)=NO2)C[C@H]1C(=O)N[C@@H](CC1CC1)C(=O)C(=O)NC1CC1 [Compound 50] | < 100 nM | 
COc1cc(OC)c(C2=NO[C@]3(C2)CC(C(=O)N[C@@H](CC2CC2)C(=O)C(N)=O)N(C(=O)[C@@H](NC(=O)CC2CCCCCC2)C(C)(C)C)C3)cc1Cl (some centres unmarked) [Compound 59] | < 100 nM | 
CCC[C@H](NC(=O)[C@@H]1C[C@]2(CC(c3cccc4cccnc34)=NO2)CN1C(=O)[C@@H](NC(=O)CC1CCCCC1)C(C)(C)C)C(=O)C(=O)NC [Compound 68] | < 100 nM | 
CCC[C@H](NC(=O)[C@@H]1C[C@]2(CC(c3cccc([N+](=O)[O-])c3)=NO2)CN1C(=O)[C@@H](NC(=O)CC1CCCCC1)C(C)(C)C)C(=O)C(=O)NC1CC1 [Compound 89] | 100 to 500 nM | 
CCC[C@H](NC(=O)[C@@H]1C[C@]2(CC(c3cccc(Cl)c3)=NO2)CN1C(=O)[C@@H](NC(=O)OC(C)(C)C)C(C)(C)C)C(=O)C(=O)NC1CC1 [Compound 90] | < 100 nM | 
COc1cc(OC)c(C2=NO[C@]3(C2)C[C@@H](C(=O)N[C@@H](CC2CC2)C(=O)C(N)=O)N(C(=O)[C@@H](NC(=O)CC(C)(C)C)C(C)(C)C)C3)cc1Cl [Compound 104] | < 100 nM | 
CCC[C@H](NC(=O)[C@@H]1C[C@]2(CC(c3cc(Cl)c(OC)cc3OC)=NO2)CN1C(=O)[C@@H](NC(=O)CC1CCCCCC1)C(C)(C)C)C(=O)C(=O)NC1CC1 [Compound 129] | < 100 nM | 
CCC[C@H](NC(=O)[C@@H]1C[C@]2(CC(c3cc(Cl)c(OC)cc3OC)=NO2)CN1C(=O)[C@@H](NC(=O)OC(C)(C)C)C(C)(C)C)C(=O)C(=O)NC1CC1 [Compound 131] | < 100 nM | 
CCC[C@H](NC(=O)[C@@H]1C[C@]2(CC(c3cccc(Cl)c3F)=NO2)CN1C(=O)[C@@H](NC(=O)CC1CCCCC1)C(C)(C)C)C(=O)C(=O)NC1CC1 [Compound 169] | 100 to 500 nM | 
CCC[C@H](NC(=O)[C@@H]1C[C@]2(CC(c3cc(Cl)cc4c3OC(C)(C)C4)=NO2)CN1C(=O)[C@@H](NC(=O)CC1CCCCC1)C(C)(C)C)C(=O)C(=O)NC1CC1 [Compound 170] | < 100 nM | 
CC1(CC(=O)N[C@H](C(=O)N2C[C@@]3(CC(c4cccc(Cl)c4)=NO3)C[C@H]2C(=O)N[C@@H](CC2CC2)C(=O)C(N)=O)C(C)(C)C)CCOCC1 [Compound 184] | < 100 nM | 
CCC[C@H](NC(=O)[C@@H]1C[C@]2(CC(CC)=NO2)CN1C(=O)[C@@H](NC(=O)[C@@H](NC(=O)c1cnccn1)C1CCCCC1)C(C)(C)C)C(=O)C(=O)NC1CC1 [Compound 547] |  | < 100 nM
CCC[C@H](NC(=O)[C@@H]1C[C@]2(CC(c3cccc(Cl)c3)=NO2)CN1C(=O)[C@@H](NC(=O)[C@@H](CC(=O)N1CCCC1)C1CCCCC1)C(C)(C)C)C(=O)C(=O)NC1CC1 [Compound 549] |  | < 100 nM
CCC[C@H](NC(=O)[C@@H]1C[C@]2(CC(c3ccc4c(c3)CCO4)=NO2)CN1C(=O)[C@@H](NC(=O)CC1CCCCC1)C(C)(C)C)C(=O)C(=O)NC1CC1 [Compound 552] |  | 100 to 500 nM
CCC[C@H](NC(=O)[C@@H]1C[C@]2(CC(c3cccc(Cl)c3)=NO2)CN1C(=O)[C@@H](NC(=O)Cc1cc(=O)[nH]c(=O)[nH]1)C(C)(C)C)C(=O)C(=O)NC1CC1 [Compound 553] |  | 100 to 500 nM

SMILES | Ki [1] | Ki (HCV NS3 protease domain)
CCC[C@H](NC(=O)[C@@H]1C[C@]2(CC(c3ccc(CC)o3)=NO2)CN1C(=O)[C@@H](NC(=O)CC1CCOCC1)C(C)(C)C)C(=O)C(=O)NC1CC1 [Compound 554] |  | > 500 nM
CCC[C@H](NC(=O)[C@@H]1C[C@]2(CC(c3ccc(F)c(C)c3)=NO2)CN1C(=O)[C@@H](NC(=O)O[C@H]1CCOC1)C(C)(C)C)C(=O)C(=O)NC1CC1 [Compound 555] |  | 100 to 500 nM
CCC[C@H](NC(=O)[C@@H]1C[C@]2(CC(c3cccc(Cl)c3)=NO2)CN1C(=O)[C@@H](NC(=O)C1CC=CCC1C(=O)OC)C(C)(C)C)C(=O)C(=O)NC1CC1 (some centres unmarked) [Compound 557] |  | 100 to 500 nM
CCC[C@H](NC(=O)[C@@H]1C[C@]2(CC(c3cccc(Cl)c3)=NO2)CN1C(=O)[C@@H](NC(=O)Nc1ccccc1)C(C)(C)C)C(=O)C(=O)NC1CC1 [Compound 558] |  | 100 to 500 nM
CCC[C@H](NC(=O)[C@@H]1C[C@]2(CC(c3cccc(C(F)(F)F)c3)=NO2)CN1C(=O)[C@@H](NC(=O)O[C@H]1CCOC1)C(C)(C)C)C(=O)C(=O)NC1CC1 [Compound 560] |  | 100 to 500 nM
CCC[C@H](NC(=O)[C@@H]1C[C@]2(CC(c3cccc(Cl)c3)=NO2)CN1C(=O)[C@@H](NC(=O)OCc1cc(F)ccc1F)C(C)(C)C)C(=O)C(=O)NC1CC1 [Compound 561] |  | 100 to 500 nM
CCC[C@H](NC(=O)[C@@H]1C[C@]2(CC(c3cccc(Cl)c3)=NO2)CN1C(=O)[C@@H](NC(=O)OCc1cccnc1)C(C)(C)C)C(=O)C(=O)NC1CC1 [Compound 563] |  | 100 to 500 nM
CCC[C@H](NC(=O)[C@@H]1C[C@]2(CC(c3ccc4c(c3)OCO4)=NO2)CN1C(=O)[C@@H](NC(C)=O)C(C)(C)C)C(=O)C(=O)NC1CC1 [Compound 570] |  | 100 to 500 nM
CCC[C@H](NC(=O)[C@@H]1C[C@]2(CC(c3cccc(Cl)c3)=NO2)CN1C(=O)[C@@H](NC(=O)c1ccnn1-c1ccccc1)C(C)(C)C)C(=O)C(=O)NC1CC1 [Compound 571] |  | 100 to 500 nM
CCC[C@H](NC(=O)[C@@H]1C[C@]2(CC(c3cc(C)c(OC)c(C)c3)=NO2)CN1C(=O)[C@@H](NC(=O)CC1CCOCC1)C(C)(C)C)C(=O)C(=O)NC1CC1 [Compound 572] |  | 100 to 500 nM
CCC[C@H](NC(=O)[C@@H]1C[C@]2(CC(c3cccc(Cl)c3)=NO2)CN1C(=O)[C@@H](NC(=O)Nc1cccnc1)C(C)(C)C)C(=O)C(=O)NC1CC1 [Compound 576] |  | 100 to 500 nM
CC(C)C[C@H](NC(=O)[C@@H]1C[C@]2(CC(c3cccc(Cl)c3)=NO2)CN1C(=O)[C@@H](NC(=O)CC1CCCCC1)C(C)(C)C)C(=O)C(=O)NC1CC1 [Compound 579] |  | 100 to 500 nM
CCC[C@H](NC(=O)[C@@H]1C[C@]2(CC(c3ccccc3)=NO2)CN1C(=O)[C@@H](NC(=O)NCC)C(C)(C)C)C(=O)C(=O)NC1CC1 [Compound 580] |  | 100 to 500 nM
CCC[C@H](NC(=O)[C@@H]1C[C@]2(CC(c3cccc(Cl)c3)=NO2)CN1C(=O)[C@@H](NC(=O)OCCc1cccs1)C(C)(C)C)C(=O)C(=O)NC1CC1 [Compound 582] |  | 100 to 500 nM
CCC[C@H](NC(=O)[C@@H]1C[C@]2(CC(c3cccc(Cl)c3)=NO2)CN1C(=O)[C@@H](NC(=O)NCc1ccccc1)C(C)(C)C)C(=O)C(=O)NC1CC1 [Compound 583] |  | 100 to 500 nM
CCC[C@H](NC(=O)[C@@H]1C[C@]2(CC(c3ccccc3)=NO2)CN1C(=O)c1ccc[nH]1)C(=O)C(=O)NC1CC1 [Compound 584] |  | > 500 nM
CCC[C@H](NC(=O)[C@@H]1C[C@]2(CC(c3cccc(Cl)c3)=NO2)CN1C(=O)[C@@H](NC(=O)Cc1cccc(OC(F)(F)F)c1)C(C)(C)C)C(=O)C(=O)NC1CC1 [Compound 585] |  | 100 to 500 nM

Reference: US7964624B1, “Inhibitors of serine proteases” (priority 2005, dated 2011)
